{
  "source": "ChEMBL document CHEMBL1201862",
  "about": "“PubChem BioAssay data set” (2004)",
  "key": {"[1]": {"test": "HepG2 cell cytotoxicity, dose response, cytotoxicity control for non-replicating M. tuberculosis project (AID 489018)", "type": "functional", "details": "Mycobacterium tuberculosis"}, "[2]": {"molecular_target": "T1, Microphthalmia-associated transcription factor (Homo sapiens, UniProt O75030)", "T1 sequence (O75030 whole entry)": "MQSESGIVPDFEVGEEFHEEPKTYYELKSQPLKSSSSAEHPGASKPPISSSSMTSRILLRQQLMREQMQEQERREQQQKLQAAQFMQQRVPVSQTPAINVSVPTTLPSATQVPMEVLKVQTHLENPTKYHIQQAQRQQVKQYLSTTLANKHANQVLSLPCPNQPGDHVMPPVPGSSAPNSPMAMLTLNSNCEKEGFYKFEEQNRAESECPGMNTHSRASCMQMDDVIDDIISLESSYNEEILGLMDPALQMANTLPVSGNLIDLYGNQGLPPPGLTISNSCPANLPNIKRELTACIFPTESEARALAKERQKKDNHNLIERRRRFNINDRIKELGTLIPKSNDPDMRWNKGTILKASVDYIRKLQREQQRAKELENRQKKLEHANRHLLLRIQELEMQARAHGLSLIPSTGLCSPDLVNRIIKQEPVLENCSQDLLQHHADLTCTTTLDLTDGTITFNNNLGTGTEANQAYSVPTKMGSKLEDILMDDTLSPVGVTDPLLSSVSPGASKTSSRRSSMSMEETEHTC", "test": "reducers of TRPM1 reporter luminescence, concentration series – cell-based, SK-MEL-5, cherry-picked, set 3, MITF inhibitor project, dose response (AID 493073)", "type": "functional"}, "[3]": {"molecular_target": "T2, RNA-binding protein pos-1 (Caenorhabditis elegans, UniProt G5EF15)", "T2 sequence (G5EF15 whole entry)": "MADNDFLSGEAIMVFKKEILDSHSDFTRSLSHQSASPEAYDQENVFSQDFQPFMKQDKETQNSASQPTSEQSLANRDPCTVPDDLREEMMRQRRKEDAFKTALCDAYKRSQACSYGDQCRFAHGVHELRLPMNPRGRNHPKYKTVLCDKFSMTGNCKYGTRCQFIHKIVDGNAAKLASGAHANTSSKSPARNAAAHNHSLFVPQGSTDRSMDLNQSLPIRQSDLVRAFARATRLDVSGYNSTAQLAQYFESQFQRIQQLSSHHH", "test": "disruptors of C. elegans POS-1 RNA interaction – biochemical, fluorescence polarization, dose response (AID 1964);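 further: purified POS-1 fused to maltose binding protein made in E. coli; potency of compounds blocking POS-1 binding to fluorescent RNA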"}, "[4]": {"test": "Luminescence Cell-Based Dose Response HTS to Identify Inhibitors of 5'UTR Stem-Loop Driven Prion Protein mRNA Translation in H4 Neuroglioblastoma Cells. [Related pubchem assays: 1827 (Project Summary), 1813 (Primary HTS)]", "type": "functional"}, "Paired box protein Pax-8": {"molecular_target": "Paired box protein Pax-8 (Homo sapiens, UniProt Q06710)", "sequence (Q06710 whole entry)": "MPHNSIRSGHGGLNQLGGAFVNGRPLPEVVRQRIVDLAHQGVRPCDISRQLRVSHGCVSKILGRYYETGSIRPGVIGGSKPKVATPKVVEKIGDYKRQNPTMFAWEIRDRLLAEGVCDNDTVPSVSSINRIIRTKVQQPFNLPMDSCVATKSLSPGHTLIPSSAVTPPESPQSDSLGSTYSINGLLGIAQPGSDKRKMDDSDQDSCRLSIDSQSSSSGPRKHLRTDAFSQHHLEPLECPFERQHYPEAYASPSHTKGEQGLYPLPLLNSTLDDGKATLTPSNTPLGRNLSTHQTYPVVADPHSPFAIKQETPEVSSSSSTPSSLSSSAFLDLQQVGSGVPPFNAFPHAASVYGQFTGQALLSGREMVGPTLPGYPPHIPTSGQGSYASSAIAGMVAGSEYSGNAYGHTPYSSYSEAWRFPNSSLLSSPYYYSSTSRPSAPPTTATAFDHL", "test": "PAX8 transcriptional activity inhibition in RMG-I – RMG-I cells, luciferase, cherry-pick, dose response (AID 687027);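 further: luciferase reporter driven by Pax8 target thyroperoxidase promoter measured by SteadyGlo luminescence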", "type": "functional, cell-based"}, "[5]": {"molecular_target": "T3, Histone-lysine N-methyltransferase NSD2 (Homo sapiens, UniProt O96028)", "T3 sequence (O96028 whole entry)": "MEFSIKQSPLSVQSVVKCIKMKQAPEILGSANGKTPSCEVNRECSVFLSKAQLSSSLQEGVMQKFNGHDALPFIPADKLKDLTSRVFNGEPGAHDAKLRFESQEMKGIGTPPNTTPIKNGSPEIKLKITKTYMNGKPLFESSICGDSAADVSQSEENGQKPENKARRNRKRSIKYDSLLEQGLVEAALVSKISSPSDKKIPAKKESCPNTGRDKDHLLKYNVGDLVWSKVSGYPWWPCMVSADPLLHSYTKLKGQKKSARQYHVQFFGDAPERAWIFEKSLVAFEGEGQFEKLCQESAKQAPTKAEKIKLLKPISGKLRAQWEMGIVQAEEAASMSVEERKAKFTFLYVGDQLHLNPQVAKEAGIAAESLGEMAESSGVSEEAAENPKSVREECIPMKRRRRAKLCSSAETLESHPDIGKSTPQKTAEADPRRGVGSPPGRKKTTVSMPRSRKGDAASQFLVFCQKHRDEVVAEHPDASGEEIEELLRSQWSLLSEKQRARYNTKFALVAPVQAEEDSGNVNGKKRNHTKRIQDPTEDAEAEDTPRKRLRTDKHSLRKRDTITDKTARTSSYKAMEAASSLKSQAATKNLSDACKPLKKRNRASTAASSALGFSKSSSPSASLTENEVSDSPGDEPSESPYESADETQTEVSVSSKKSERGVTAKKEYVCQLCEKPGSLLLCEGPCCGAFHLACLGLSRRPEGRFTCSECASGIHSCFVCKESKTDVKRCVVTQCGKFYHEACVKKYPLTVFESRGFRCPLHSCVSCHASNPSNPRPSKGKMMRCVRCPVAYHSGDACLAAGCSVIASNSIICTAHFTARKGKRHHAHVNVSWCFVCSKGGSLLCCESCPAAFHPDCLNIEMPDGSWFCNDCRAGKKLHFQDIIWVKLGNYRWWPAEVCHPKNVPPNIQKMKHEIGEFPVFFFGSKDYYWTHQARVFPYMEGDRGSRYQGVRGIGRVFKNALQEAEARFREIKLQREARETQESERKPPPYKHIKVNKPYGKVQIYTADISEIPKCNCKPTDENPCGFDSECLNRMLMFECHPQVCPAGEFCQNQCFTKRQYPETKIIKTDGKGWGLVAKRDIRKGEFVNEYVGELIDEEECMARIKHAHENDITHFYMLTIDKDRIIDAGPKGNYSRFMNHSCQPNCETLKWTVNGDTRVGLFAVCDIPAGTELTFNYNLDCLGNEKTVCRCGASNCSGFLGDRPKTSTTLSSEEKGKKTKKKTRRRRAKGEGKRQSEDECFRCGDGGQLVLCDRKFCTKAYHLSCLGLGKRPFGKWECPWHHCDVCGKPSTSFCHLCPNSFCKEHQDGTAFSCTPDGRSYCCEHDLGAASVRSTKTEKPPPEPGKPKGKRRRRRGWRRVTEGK", "type": "biochemical"}, "[6]": {"test": "general cell-killing toxicity readout – plate reader, dry powder samples, cytotoxicity control for PAX8 inhibitor project, dose response (AID 743021)", "type": "functional, cell-based"}, "[7]": {"molecular_target": "Insulin-like growth factor 1 receptor (Homo sapiens, UniProt P08069)", "sequence (P08069 31-736 limits assumed)": "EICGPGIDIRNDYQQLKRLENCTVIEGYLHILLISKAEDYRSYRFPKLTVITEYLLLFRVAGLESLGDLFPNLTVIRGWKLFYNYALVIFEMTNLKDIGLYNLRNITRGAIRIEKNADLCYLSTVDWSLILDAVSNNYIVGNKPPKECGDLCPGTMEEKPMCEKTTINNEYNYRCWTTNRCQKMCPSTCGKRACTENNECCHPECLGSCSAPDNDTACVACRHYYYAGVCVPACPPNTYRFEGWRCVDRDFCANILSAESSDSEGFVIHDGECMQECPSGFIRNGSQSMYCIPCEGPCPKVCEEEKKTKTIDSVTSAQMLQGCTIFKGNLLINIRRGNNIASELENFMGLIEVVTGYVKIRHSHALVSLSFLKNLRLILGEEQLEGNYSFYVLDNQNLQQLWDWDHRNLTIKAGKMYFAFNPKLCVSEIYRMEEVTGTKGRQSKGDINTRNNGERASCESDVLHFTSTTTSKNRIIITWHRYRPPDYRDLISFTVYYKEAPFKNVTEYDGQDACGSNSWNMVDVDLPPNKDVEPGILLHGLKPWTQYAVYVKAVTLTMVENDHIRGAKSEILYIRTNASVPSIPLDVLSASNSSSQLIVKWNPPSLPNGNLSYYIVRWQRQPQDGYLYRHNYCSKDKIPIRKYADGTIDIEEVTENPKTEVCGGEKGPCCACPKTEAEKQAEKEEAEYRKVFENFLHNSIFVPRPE", "sequence (P08069 741-1367 limits assumed)": "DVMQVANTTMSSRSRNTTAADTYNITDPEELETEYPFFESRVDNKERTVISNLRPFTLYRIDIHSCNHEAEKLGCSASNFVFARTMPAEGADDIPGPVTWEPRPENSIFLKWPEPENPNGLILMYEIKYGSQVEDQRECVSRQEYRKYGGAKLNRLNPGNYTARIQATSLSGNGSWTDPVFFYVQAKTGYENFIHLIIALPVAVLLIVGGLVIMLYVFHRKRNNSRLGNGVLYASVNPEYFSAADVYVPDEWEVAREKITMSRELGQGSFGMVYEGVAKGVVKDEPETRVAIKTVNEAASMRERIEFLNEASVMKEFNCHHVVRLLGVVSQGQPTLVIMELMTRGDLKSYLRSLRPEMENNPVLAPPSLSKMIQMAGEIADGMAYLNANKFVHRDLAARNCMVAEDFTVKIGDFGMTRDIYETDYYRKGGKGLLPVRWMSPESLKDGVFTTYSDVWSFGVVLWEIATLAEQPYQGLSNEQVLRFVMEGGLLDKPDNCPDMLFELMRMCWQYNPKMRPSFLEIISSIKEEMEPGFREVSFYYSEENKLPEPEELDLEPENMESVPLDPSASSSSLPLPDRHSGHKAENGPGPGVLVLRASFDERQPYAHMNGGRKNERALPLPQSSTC", "test": "Navigating the Kinome. Panel member name: IGF1R", "type": "functional"}, "[8]": {"molecular_target": "Testis-specific serine/threonine-protein kinase 1 (Homo sapiens, UniProt Q9BXA7)", "sequence (Q9BXA7 whole entry)": "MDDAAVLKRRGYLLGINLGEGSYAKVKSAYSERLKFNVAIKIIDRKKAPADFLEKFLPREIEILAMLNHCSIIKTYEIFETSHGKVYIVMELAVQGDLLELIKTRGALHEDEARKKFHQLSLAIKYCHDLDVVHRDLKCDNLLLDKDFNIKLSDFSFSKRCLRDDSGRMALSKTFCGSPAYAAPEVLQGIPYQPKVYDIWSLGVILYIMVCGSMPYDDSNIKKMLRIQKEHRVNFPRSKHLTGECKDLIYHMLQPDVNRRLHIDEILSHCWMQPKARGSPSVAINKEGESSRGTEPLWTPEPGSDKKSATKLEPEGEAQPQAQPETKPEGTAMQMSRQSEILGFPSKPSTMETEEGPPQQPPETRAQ", "type": "functional"}, "[9]": {"molecular_target": "Tyrosine-protein kinase BTK (Homo sapiens, UniProt Q06187)", "sequence (Q06187 whole entry)": "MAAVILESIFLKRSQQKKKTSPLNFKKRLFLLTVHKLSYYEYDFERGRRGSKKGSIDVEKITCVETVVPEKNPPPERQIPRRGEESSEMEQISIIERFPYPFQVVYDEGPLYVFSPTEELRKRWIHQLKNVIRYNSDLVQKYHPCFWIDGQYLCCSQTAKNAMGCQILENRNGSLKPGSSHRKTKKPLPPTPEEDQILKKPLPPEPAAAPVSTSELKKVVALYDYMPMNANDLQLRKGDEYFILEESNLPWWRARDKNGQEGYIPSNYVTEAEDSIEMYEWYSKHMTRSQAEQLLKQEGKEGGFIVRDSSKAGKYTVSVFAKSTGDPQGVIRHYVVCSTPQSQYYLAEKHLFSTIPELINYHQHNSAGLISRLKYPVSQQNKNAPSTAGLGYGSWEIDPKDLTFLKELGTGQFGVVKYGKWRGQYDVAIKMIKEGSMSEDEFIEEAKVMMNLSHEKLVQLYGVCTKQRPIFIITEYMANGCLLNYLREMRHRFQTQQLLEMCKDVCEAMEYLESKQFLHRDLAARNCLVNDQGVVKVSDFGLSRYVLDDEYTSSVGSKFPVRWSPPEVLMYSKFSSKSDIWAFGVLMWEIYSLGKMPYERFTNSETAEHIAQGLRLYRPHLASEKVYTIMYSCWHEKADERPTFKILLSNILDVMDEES", "type": "functional"}, "[10]": {"molecular_target": "Serine/threonine-protein kinase TAO1 (Homo sapiens, UniProt Q7L7X3)", "sequence (Q7L7X3 whole entry)": "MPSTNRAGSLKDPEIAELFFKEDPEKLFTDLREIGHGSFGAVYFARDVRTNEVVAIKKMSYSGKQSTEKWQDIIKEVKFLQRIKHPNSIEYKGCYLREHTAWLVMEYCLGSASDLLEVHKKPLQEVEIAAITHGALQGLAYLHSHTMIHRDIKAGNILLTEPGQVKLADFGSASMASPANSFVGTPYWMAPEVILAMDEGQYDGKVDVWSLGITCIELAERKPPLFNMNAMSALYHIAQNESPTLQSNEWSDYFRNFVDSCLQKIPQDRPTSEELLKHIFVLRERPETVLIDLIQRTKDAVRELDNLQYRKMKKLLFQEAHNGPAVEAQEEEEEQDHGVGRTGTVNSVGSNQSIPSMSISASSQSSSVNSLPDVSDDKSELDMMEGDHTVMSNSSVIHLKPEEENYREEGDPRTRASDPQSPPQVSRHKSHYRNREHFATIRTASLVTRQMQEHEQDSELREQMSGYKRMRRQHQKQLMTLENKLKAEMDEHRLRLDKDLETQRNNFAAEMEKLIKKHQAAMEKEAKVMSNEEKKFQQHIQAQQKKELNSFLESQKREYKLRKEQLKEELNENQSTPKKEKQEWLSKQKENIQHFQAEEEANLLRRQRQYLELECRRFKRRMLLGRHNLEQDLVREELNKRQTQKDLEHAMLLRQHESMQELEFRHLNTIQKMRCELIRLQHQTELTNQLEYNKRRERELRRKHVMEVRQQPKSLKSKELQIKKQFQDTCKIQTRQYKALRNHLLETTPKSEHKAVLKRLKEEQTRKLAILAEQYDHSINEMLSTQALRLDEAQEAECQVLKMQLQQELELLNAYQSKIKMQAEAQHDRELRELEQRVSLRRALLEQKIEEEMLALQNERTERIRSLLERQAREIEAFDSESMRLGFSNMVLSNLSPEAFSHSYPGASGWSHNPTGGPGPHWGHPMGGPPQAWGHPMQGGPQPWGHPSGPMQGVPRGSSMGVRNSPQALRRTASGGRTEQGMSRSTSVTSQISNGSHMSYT", "type": "functional"}, "[11]": {"molecular_target": "Glycogen synthase kinase-3 alpha (Homo sapiens, UniProt P49840)", "sequence (P49840 whole entry)": "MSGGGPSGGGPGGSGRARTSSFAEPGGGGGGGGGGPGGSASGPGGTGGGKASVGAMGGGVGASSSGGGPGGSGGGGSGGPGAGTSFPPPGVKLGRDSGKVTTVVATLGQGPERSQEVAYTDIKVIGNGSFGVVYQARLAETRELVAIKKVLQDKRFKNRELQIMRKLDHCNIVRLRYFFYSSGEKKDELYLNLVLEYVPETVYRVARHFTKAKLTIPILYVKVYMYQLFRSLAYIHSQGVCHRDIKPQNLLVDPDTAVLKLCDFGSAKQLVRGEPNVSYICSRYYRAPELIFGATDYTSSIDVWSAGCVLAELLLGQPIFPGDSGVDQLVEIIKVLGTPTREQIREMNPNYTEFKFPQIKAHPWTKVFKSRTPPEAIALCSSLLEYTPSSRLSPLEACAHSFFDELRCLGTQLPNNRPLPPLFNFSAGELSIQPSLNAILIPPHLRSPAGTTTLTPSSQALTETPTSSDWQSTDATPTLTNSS", "type": "functional"}, "[12]": {"molecular_target": "C-C chemokine receptor type 6 (Homo sapiens, UniProt P51684)", "test": "antagonism of CCR6 beta-arrestin recruitment – cell-based, luminescent beta-arrestin readout, dose response (AID 504728)", "type": "functional"}, "[13]": {"molecular_target": "Dual specificity mitogen-activated protein kinase kinase 2 (Homo sapiens, UniProt P36507)", "sequence (P36507 whole entry)": "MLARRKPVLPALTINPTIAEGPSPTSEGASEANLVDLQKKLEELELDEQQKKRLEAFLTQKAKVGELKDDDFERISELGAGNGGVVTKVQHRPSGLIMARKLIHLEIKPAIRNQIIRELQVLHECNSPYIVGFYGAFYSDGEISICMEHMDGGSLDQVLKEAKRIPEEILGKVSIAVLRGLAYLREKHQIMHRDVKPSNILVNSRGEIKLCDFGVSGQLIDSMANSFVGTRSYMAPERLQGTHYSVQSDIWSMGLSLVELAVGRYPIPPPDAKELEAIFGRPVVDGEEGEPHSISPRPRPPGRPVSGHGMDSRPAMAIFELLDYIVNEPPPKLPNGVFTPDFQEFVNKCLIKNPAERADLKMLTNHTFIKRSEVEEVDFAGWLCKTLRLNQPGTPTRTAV", "test": "Navigating the Kinome. Panel member name: MAP2K2", "type": "functional"}},
  "note": "Activity calls are given as the source filed them.",
  "data": [
    {"smiles": "COC(=O)CCS(=O)(=O)c1nc(-c2ccccc2)cc(C(F)(F)F)n1", "values": [
      {"measurement": "CC50", "setting": "[1]", "value": "19.4 µM (active)"},
      {"measurement": "AC50", "setting": "[2]", "value": "5.85 µM (active)"}
    ]},
    {"smiles": "O=C(O)c1ccc2c3c(ncnc13)-c1ccccc1C2=O", "values": [
      {"measurement": "EC50", "setting": "[3]", "value": "34.8 µM (active)"},
      {"measurement": "EC50", "setting": "[4]", "value": "1.32 µM (active)"}
    ]},
    {"smiles": "CCOC(=O)c1c2c(n(Cc3ccccc3)c1C)C(=O)C(=O)c1ccccc1-2", "values": [
      {"measurement": "AC50", "setting": "Paired box protein Pax-8", "value": "1.98 µM (active)"},
      {"measurement": "AC50", "setting": "[5]", "value": "263 nM (active)"},
      {"measurement": "AC50", "setting": "[6]", "value": "15.7 µM (active)"}
    ]},
    {"smiles": "Cc1ccc2nccc(NC(=O)Nc3cccc(C(F)(F)F)n3)c2c1", "values": [
      {"measurement": "Ki", "setting": "[7]", "value": "> 2 µM (inactive)"},
      {"measurement": "Ki", "setting": "[8]", "value": "> 1.58 µM (inactive)"},
      {"measurement": "Ki", "setting": "[9]", "value": "> 1.26 µM (inactive)"},
      {"measurement": "Ki", "setting": "[10]", "value": "> 6.31 µM (inactive)"}
    ]},
    {"smiles": "Cc1nn(C)c2sc3c(=O)[nH]cnc3c12", "values": [
      {"measurement": "Ki", "setting": "[11]", "value": "50.1 µM (active)"}
    ]},
    {"smiles": "Cc1c(/N=C2\\C=CC(=O)c3ccccc32)c(=O)n(-c2ccccc2)n1C", "values": [
      {"measurement": "IC50", "setting": "[12]", "value": "> 66.6 µM (inactive)"},
      {"measurement": "AC50", "setting": "[5]", "value": "2430 nM (active)"},
      {"measurement": "AC50", "setting": "[2]", "value": "5.26 µM (active)"}
    ]},
    {"smiles": "COc1cc2c(cc1F)C(c1ccccc1Cl)=Nc1c(n[nH]c1C)N2", "note": "[RG-1530]", "values": [
      {"measurement": "Ki", "setting": "[7]", "value": "> 1.26 µM (inactive)"},
      {"measurement": "Ki", "setting": "[13]", "value": "2.51 µM (active)"},
      {"measurement": "Ki", "setting": "[11]", "value": "0.0501 µM (active)"},
      {"measurement": "Ki", "setting": "[8]", "value": "> 1.58 µM (inactive)"}
    ]}
  ]
}
